≈ marks a conversion by molar mass, not a printed value. Marks after values point to notes of the source that are not given here.
Columns and labels:
[1] = test system: Staphylococcus aureus ATCC43300 (MRSA); assay: MIC, MRSA ATCC43300 (CO-ADD protocol); assay type: cell-based; settings: Staphylococcus aureus, Staphylococcus aureus ATCC43300 (MRSA); mean (n = 2); read-out: MIC (µg/mL) MRSA
From the text: Additional antimicrobial evaluation against Staphylococcus aureus MRSA (ATCC43300), Pseudomonas aeruginosa (ATCC27853), Escherichia coli (ATCC25922), Klebsiella pneumoniae (ATCC700603), Acinetobacter baumannii (ATCC19606), Candida albicans (ATCC90028), and Cryptococcus neoformans (ATCC208821) was undertaken at the Community for Open Antimicrobial Drug Discovery at The University of Queensland (Australia) according to their standard protocols. For antimicrobial assays, the tested strains were cultured in either Luria broth (LB) (In Vitro Technologies, USB75852, Noble Park North, Australia), nutrient broth (NB) (Becton Dickson, 234000, Macquarie Park, Australia), or cation-adjusted MHB at 37 °C overnight. A sample of culture was then diluted 40-fold in fresh MHB and incubated at 37 °C for 1.5−2 h. The compounds were serially diluted 2-fold across the wells of 96-well plates (Corning 3641, Tewksbury, MA, USA, nonbinding surface), with compound concentrations ranging from 0.015 to 64 μg/mL, plated in duplicate. The resultant mid log phase cultures were diluted to the final concentration of 1 × 10^6 CFU/mL; then, 50 μL was added to each well of the compound containing plates giving a final compound concentration range of 0.008 to 32 μg/mL and a cell density of 5 × 10^5 CFU/mL. All plates were then covered and incubated at 37 °C for 18 h. Resazurin was added at 0.001% final concentration to each well and incubated for 2 h before MICs were read by eye.
(§1) Colistin and vancomycin were used as positive bacterial inhibitor standards for Gram-negative and Gram-positive bacteria, respectively. Fluconazole was used as a positive fungal inhibitor standard for C. albicans and C. neoformans. The antibiotics were provided in 4 concentrations, with 2 above and 2 below its MIC value, and plated into the first 8 wells of column 23 of the 384-well NBS plates. The quality control (QC) of the assays was determined by the antimicrobial controls and the Z′-factor (using positive and negative controls).

[2] = test system: human red blood cells; assay: Hemolytic assay; assay type: cell-based; settings: concentration at 10% hemolytic activity on human red blood cells; mean (n = 2)
Protocol: Human whole blood was washed three times with 3 volumes of 0.9% NaCl and then resuspended in same to a concentration of 0.5 × 10^8 cells/mL, as determined by manual cell count in a Neubauer hemocytometer. The washed cells were then added to the 384-well compound-containing plates for a final volume of 50 μL. After a 10 min shake on a plate shaker the plates were then incubated for 1 h at 37 °C. After incubation, the plates were centrifuged at 1000 g for 10 min to pellet cells and debris, 25 μL of the supernatant was then transferred to a polystyrene 384-well assay plate. Hemolysis was determined by measuring the supernatant absorbance at […] (OD405). The absorbance was measured using a Tecan M1000 Pro monochromator plate reader. HC10 and HC50 (concentration at 10% and 50% hemolysis, respectively) were calculated by curve fitting the inhibition values vs. log(concentration) using a sigmoidal dose–response function with variable fitting values for top, bottom and slope.

[3] = test system: Cryptococcus neoformans ATCC208821; assay: Antifungal MIC, C. neoformans; assay type: cell-based; settings: Cryptococcus neoformans ATCC208821; mean (n = 2)
Protocol: For the antifungal assay, fungi strains were cultured for 3 days on yeast extract-peptone dextrose (YPD) agar at 30 °C. A yeast suspension of 1 × 10^6 to 5 × 10^6 CFU/mL was prepared from five colonies. These stock suspensions were diluted with yeast nitrogen base (YNB) (Becton Dickinson, 233520) broth to a final concentration of 2.5 × 10^3 CFU/mL. The compounds were serially diluted 2-fold across the wells of 96-well plates (Corning 3641, nonbinding surface), with compound concentrations ranging from 0.015 to 64 μg/mL and final volumes of 50 μL, plated in duplicate. Then, 50 μL of the fungi suspension that was previously prepared in YNB broth to the final concentration of 2.5 × 10^3 CFU/mL was added to each well of the compound-containing plates, giving a final compound concentration range of 0.008 to 32 μg/mL. Plates were covered and incubated at 35 °C for 36 h without shaking. C. albicans MICs were determined by measuring the absorbance at OD530. For C. neoformans, resazurin was added at 0.006% final concentration to each well and incubated for a further 3 h before MICs were determined by measuring the absorbance at OD570–600.
as §1

[4] = HEK293 cytotoxicity assay (resazurin); assay type: cell-based, human; settings: human; for CC50 at 20 h: concentration at 50% cytotoxicity on HEK293 cells, mean (n = 2)
Protocol: For the HEK293 cytotoxicity assay, cells were counted manually in a Neubauer hemocytometer and plated at a density of 5000 cells/well into each well of the 384-well plates containing the 25× (2 μL) concentrated compounds. The medium used was Dulbecco’s modified eagle medium (DMEM) supplemented with 10% fetal bovine serum (FBS). Cells were incubated together with the compounds for 20 h at 37 °C, 5% CO2. To measure cytotoxicity, 5 μL (equals 100 μM final) of resazurin was added to each well after incubation, and incubated for further 3 h at 37 °C with 5% CO2. After final incubation fluorescence intensity was measured as Fex 560/10 nm, em 590/10 nm (F560/590) using a Tecan M1000 Pro monochromator plate reader. CC50 values (concentration at 50% cytotoxicity) were calculated by normalizing the fluorescence readout, with 74 μg/mL tamoxifen as negative control (0%) and normal cell growth as positive control (100%). The concentration-dependent percentage cytotoxicity was fitted to a dose response function (using Pipeline Pilot) and CC50 values determined.

[5] = test system: Staphylococcus aureus ATCC25923; assay: MIC by broth dilution, S. aureus ATCC25923; assay type: cell-based; settings: Staphylococcus aureus ATCC25923; mean (n = 3)
Protocol: The susceptibility of S. aureus (ATCC25923) to antibiotics and compounds was determined in microplates using the standard broth dilution method in accordance with the recommendations of the Comité de l’AntibioGramme de la Société Française de Microbiologie (CA-SFM) as previously described. Briefly, the minimal inhibitory concentrations (MICs) were determined with an inoculum of 10^5 CFU in 200 µL of Mueller-Hinton broth (MHB) containing two-fold serial dilutions of each drug. […] To determine all MICs, the measurements were independently repeated in triplicate.

Row | SMILES | melting point [°C] | MIC [1] [µg/mL] | HC10 [2] [µg/mL] | MIC [3] [µg/mL] | CC50 at 20 h [4] [µg/mL] | MIC [5] [µg/mL] | HC10 (µg/mL) [2] | IC50 at 20 h ([4]; HEK293 cells, positive control) [µg/mL]
1 | c1ccc(CCn2cncc2-c2c[nH]c3ccccc23)cc1 [Compound 1, 3-(1-Phenethyl-1H-imidazol-5-yl)-1H-indole] | 69 to 70 | 16 (≈ 55.7 µM) | >32 | > 32 | 19.3 (≈ 67.2 µM) | > 200 |  | 
2 | COc1ccc(CCn2cncc2-c2c[nH]c3cc(Cl)ccc23)cc1 [Compound 2, 6-Chloro-3-(1-(4-methoxyphenethyl)-1H-imidazol-5-yl)-1H-indole] | 165 to 166 | 16 (≈ 45.5 µM) | >32 | 32 (≈ 91 µM) | 22.5 (≈ 64 µM) | > 200 |  | 
3 | Brc1ccc2[nH]cc(-c3cncn3Cc3ccc(I)cc3)c2c1 [Compound 9, 5-Bromo-3-(1-(4-iodobenzyl)-1H-imidazol-5-yl)-1H-indole] | > 200 | 16 (≈ 33.5 µM) | >32 | 16 (≈ 33.5 µM) | 5.1 (≈ 10.7 µM) | > 200 |  | 
4 | COc1ccc(Cn2cncc2-c2c[nH]c3ccccc23)cc1 [Compound 11, 3-(1-(4-Methoxybenzyl)-1H-imidazol-5-yl)-1H-indole] | 159 to 160 | 32 (≈ 105 µM) | >32 | > 32 | 25.6 (≈ 84.4 µM) | > 200 |  | 
5 | COc1ccc(Cn2cncc2-c2c[nH]c3cc(Br)ccc23)cc1 [Compound 17, 6-Bromo-3-(1-(4-methoxybenzyl)-1H-imidazol-5-yl)-1H-indole] | 188 to 189 | 32 (≈ 83.7 µM) | >32 | 32 (≈ 83.7 µM) | 11.1 (≈ 29 µM) | 25 (≈ 65.4 µM) |  | 
6 | Fc1ccc2c(-c3cncn3CCc3ccccc3)c[nH]c2c1 [Compound 18, 6-Fluoro-3-(1-phenethyl-1H-imidazol-5-yl)-1H-indole] |  | 32 (≈ 105 µM) |  | > 32 | 16.3 (≈ 53.4 µM) | 25 (≈ 81.9 µM) | >32^c µg/mL | 
7 | Clc1ccc2[nH]cc(-c3cncn3CCc3ccccc3)c2c1 [Compound 19, 5-Chloro-3-(1-phenethyl-1H-imidazol-5-yl)-1H-indole] | > 200 | 16 (≈ 49.7 µM) | >32 | > 32 | 17.3 (≈ 53.8 µM) | 12.5 (≈ 38.8 µM) |  | 
8 | Brc1ccc2[nH]cc(-c3cncn3CCc3ccccc3)c2c1 [Compound 21, 5-Bromo-3-(1-phenethyl-1H-imidazol-5-yl)-1H-indole] | 110 to 111 | 16 (≈ 43.7 µM) | >32 | 32 (≈ 87.4 µM) | 10.6 (≈ 28.9 µM) | 6.25 (≈ 17.1 µM) |  | 
9 | Brc1ccc2c(-c3cncn3CCc3ccccc3)c[nH]c2c1 [Compound 22, 6-Bromo-3-(1-phenethyl-1H-imidazol-5-yl)-1H-indole] |  | 16 (≈ 43.7 µM) | >32 | 32 (≈ 87.4 µM) | 12.7 (≈ 34.7 µM) | 12.5 (≈ 34.1 µM) |  | 
10 | COc1ccc(CCn2cncc2-c2c[nH]c3ccccc23)cc1 [Compound 23, 3-(1-(4-Methoxyphenethyl)-1H-imidazol-5-yl)-1H-indole] | 158 to 159 | 32 (≈ 101 µM) | >32 | > 32 | 24.5 (≈ 77.2 µM) | 100 (≈ 315 µM) |  | 
11 | COc1ccc(CCn2cncc2-c2c[nH]c3cc(F)ccc23)cc1 [Compound 25, 6-Fluoro-3-(1-(4-methoxyphenethyl)-1H-imidazol-5-yl)-1H-indole] |  | 16 (≈ 47.7 µM) | >32 | > 32 | 27 (≈ 80.5 µM) | 100 (≈ 298 µM) |  | 
12 | COc1ccc(CCn2cncc2-c2c[nH]c3ccc(Br)cc23)cc1 [Compound 27, 5-Bromo-3-(1-(4-methoxyphenethyl)-1H-imidazol-5-yl)-1H-indole] | 157 to 158 | 8 (≈ 20.2 µM) | >32 | > 32 | 16 (≈ 40.4 µM) | 12.5 (≈ 31.5 µM) |  | 
13 | COc1ccc(CCn2cncc2-c2c[nH]c3cc(Br)ccc23)cc1 [Compound 28, 6-Bromo-3-(1-(4-methoxyphenethyl)-1H-imidazol-5-yl)-1H-indole] | 184 to 185 | 32 (≈ 80.7 µM) | >32 | 32 (≈ 80.7 µM) | 15.6 (≈ 39.4 µM) | 12.5 (≈ 31.5 µM) |  | 
14 | COc1ccc(OC)c(CCn2cncc2-c2c[nH]c3ccccc23)c1 [Compound 29, 3-(1-(2,5-Dimethoxyphenethyl)-1H-imidazol-5-yl)-1H-indole] |  | 32 (≈ 92.1 µM) | >32 | > 32 | 11.5 (≈ 33.1 µM) | > 200 |  | 
15 | COc1ccc(OC)c(CCn2cncc2-c2c[nH]c3ccc(Br)cc23)c1 [Compound 34, 5-Bromo-3(1-(2,5-dimethoxyphenethyl)-1H-imidazol-5-yl)-1H-indole] | 141 to 142 | 16 (≈ 37.5 µM) | >32 | > 32 | 6.2 (≈ 14.5 µM) | 25 (≈ 58.6 µM) |  | 
16 | Brc1ccc2c(-c3cncn3CCc3ccc4c(c3)OCO4)c[nH]c2c1 [Compound 42, 3-(1-(2-(Benzo[d][1,3]dioxol-5-yl)ethyl)-1H-imidazol-5-yl)-6-bromo-1H-indole] | 194 to 195 | 16 (≈ 39 µM) | >32 | 32 (≈ 78 µM) | 16.1 (≈ 39.2 µM) | 12.5 (≈ 30.5 µM) |  | 
17 | CC/C(=C(\c1ccccc1)c1ccc(OCCN(C)C)cc1)c1ccccc1 [Tamoxifen, reference compound] |  |  |  |  |  |  |  | 9 (≈ 24.2 µM)

Source: publication PMC9598367, “Discovery and Preliminary Structure-Activity Investigation of 3-Substituted-1H-imidazol-5-yl-1H-indoles with In Vitro Activity towards Methicillin-Resistant Staphylococcus aureus” (Antibiotics, 2022)
